Experiments:
OR2C1 [1] = molecular target: T1, OR2C1 (Homo sapiens, UniProt O95371); test: suppressive effect on the response of OR2C1 to trans-2-nonenal, luciferase reporter gene assay; details: mixed with trans-2-nonenal as analyte; FIGS. 9 and 10
T1 sequence (O95371 1-312): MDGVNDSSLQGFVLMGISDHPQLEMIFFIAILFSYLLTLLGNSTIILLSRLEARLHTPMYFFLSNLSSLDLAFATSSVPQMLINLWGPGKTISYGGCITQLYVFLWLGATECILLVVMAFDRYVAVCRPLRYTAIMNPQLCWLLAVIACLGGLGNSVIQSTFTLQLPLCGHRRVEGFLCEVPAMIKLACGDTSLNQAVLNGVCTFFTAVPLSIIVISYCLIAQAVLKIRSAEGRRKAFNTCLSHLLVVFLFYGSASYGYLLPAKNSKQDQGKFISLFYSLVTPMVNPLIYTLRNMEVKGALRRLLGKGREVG
Description: Human olfactory receptor genes were obtained by PCR cloning with Human Genomic DNA: Female (Promega) on the basis of their sequence information registered in GenBank. Into pME18S vectors, the N-terminal 20 amino acid residues of bovine rhodopsin were integrated, and subsequently the resulting human olfactory receptor genes were integrated respectively downstream thereof to obtain human olfactory receptor gene expression vectors. […]
After removal of the culture solutions, an odorous substance serving as an analyte, which had been prepared at a given concentration with CD293 (gibco) medium (supplemented with 20 μM L-glutamine), was added in 50 μL volumes to stimulate the cells for 3 hours, followed by luciferase activity measurement in accordance with the usage of a Dual-Luciferase Reporter Assay System (Promega). The response intensity of each olfactory receptor polypeptide was expressed as a fold increase value, which was determined by dividing the luciferase activity generated upon stimulation with the odorous substance by the luciferase activity generated in a test system not containing the odorous substance.

OR2C1 [2] = molecular target: T1, OR2C1; test: luciferase reporter gene assay, response of OR2C1 to odorous substance; assay type: cell-based
OR4E2 = molecular target: T2, OR4E2 (Homo sapiens, UniProt Q8NGC2, Q234R/V118M); test: luciferase reporter gene assay, response of OR4E2 to odorous substance; assay type: cell-based
T2 sequence (Q8NGC2 1-313 V118M/Q234R): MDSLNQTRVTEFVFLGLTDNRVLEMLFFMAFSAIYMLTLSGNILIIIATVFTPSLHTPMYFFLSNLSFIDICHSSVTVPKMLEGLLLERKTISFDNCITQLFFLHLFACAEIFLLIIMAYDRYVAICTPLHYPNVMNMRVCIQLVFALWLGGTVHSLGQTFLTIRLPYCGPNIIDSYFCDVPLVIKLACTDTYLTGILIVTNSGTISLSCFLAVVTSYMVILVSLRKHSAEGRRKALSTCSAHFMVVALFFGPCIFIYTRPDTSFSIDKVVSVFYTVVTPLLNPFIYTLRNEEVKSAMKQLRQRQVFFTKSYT

OR5P3 = molecular target: T3, OR5P3 (Homo sapiens, UniProt Q8WZ94); test: luciferase reporter gene assay, response of OR5P3 to odorous substance; assay type: cell-based
T3 sequence (Q8WZ94 1-311): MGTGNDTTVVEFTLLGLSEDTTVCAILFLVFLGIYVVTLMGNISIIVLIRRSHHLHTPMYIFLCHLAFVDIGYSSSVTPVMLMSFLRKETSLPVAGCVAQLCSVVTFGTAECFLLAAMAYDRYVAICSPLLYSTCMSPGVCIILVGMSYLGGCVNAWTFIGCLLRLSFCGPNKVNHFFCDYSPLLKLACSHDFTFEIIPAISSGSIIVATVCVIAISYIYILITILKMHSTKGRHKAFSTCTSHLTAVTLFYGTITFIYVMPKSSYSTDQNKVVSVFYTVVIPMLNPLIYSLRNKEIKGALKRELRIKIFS

OR7G1 = molecular target: T4, OR7G1 (Homo sapiens, UniProt Q8NGA0); test: luciferase reporter gene assay, response of OR7G1 to odorous substance; assay type: cell-based; details: trans-2-octenal 50 μM, HEK293T cells expressing OR7G1
T4 sequence (Q8NGA0 1-311): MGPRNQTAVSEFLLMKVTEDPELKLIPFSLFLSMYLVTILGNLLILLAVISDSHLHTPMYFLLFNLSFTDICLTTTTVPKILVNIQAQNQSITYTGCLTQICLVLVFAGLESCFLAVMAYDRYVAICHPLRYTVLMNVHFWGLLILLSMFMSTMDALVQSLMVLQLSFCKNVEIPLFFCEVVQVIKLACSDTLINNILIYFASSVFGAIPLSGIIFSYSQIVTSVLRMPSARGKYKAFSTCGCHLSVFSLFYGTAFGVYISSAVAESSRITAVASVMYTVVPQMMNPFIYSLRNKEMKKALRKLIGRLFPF
Protocol: (§1) In the same manner as shown in Example 1, the cells engineered to express 402 types of human olfactory receptors were measured for receptor responses to trans-2-octenal (50 μM) by the luciferase reporter gene assay.

OR9I1 = molecular target: T5, OR9I1 (Homo sapiens, UniProt Q8NGQ6); test: luciferase reporter gene assay, response of OR9I1 to odorous substance; assay type: cell-based; details: trans-2-octenal 50 μM, HEK293T cells expressing OR9I1
T5 sequence (Q8NGQ6 1-314): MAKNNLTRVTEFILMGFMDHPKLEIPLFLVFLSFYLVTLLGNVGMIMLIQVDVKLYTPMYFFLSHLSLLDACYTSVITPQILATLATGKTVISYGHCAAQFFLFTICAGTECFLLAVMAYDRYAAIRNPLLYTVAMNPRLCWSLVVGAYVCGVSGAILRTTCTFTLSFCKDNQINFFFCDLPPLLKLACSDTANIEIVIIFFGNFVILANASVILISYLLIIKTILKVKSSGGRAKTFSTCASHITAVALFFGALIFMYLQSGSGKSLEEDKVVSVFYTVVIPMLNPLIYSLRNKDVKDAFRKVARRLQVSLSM
Protocol: as §1

OR51A7 = molecular target: T6, OR51A7 (Homo sapiens, UniProt Q8NH64); test: luciferase reporter gene assay, response of OR51A7 to odorous substance; assay type: cell-based; details: trans-2-octenal 50 μM, HEK293T cells expressing OR51A7
T6 sequence (Q8NH64 1-312): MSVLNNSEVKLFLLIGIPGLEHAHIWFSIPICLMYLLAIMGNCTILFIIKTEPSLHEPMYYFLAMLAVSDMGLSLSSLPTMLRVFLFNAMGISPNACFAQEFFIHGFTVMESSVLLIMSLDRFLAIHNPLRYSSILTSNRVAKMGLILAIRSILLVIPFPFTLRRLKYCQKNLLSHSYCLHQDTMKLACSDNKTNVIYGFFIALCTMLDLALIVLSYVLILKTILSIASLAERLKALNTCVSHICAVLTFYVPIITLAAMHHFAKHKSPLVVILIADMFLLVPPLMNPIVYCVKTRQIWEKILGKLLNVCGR
Protocol: as §1

OR1D2 = molecular target: T7, OR1D2 (Homo sapiens, UniProt P34982); test: luciferase reporter gene assay, response of OR1D2 to odorous substance; assay type: cell-based
T7 sequence (P34982 1-312): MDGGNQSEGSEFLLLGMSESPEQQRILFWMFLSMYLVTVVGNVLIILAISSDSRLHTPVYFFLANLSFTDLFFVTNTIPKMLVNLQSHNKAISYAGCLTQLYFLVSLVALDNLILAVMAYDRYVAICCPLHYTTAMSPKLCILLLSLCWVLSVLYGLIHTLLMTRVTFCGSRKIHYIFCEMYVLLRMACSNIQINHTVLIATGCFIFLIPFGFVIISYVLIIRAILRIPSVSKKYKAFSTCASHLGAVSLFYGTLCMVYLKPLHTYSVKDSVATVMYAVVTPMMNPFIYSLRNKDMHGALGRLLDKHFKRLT

OR52N2 = molecular target: T8, OR52N2 (Homo sapiens, UniProt Q8NGI0); test: luciferase reporter gene assay, response of OR52N2 to odorous substance; assay type: cell-based
T8 sequence (Q8NGI0 1-321): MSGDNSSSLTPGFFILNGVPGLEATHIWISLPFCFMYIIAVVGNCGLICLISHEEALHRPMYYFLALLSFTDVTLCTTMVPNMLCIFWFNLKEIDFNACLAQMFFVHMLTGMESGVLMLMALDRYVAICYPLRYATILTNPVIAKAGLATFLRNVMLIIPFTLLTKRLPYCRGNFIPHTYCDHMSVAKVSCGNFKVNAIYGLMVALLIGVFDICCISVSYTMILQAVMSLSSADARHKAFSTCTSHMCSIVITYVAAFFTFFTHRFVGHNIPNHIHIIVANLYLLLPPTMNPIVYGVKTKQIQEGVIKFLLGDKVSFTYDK

CC/C=C\CCO [cis-3-Hexenol]
suppressive effect on the response of OR2C1 to trans-2-nonenal (ratio of fold increase value, test without material set to 100) (OR2C1 [1]): reducing the response of OR2C1 to trans-2-nonenal in a concentration-dependent manner

CC1=CC(C)C(C=O)CC1 (stereo not drawn) [dimethyltetrahydrobenzaldehyde]
suppressive effect on the response of OR2C1 to trans-2-nonenal (ratio of fold increase value, test without material set to 100) (OR2C1 [1]): reducing the response of OR2C1 to trans-2-nonenal in a concentration-dependent manner

CCCCC/C=C/C=O [trans-2-octenal]
fold increase value (receptor response) (OR2C1 [2]; trans-2-octenal 50 μM, HEK293T cells expressing OR2C1): ≥ 2 | fold increase value (receptor response) (OR4E2; trans-2-octenal 50 μM, HEK293T cells expressing OR4E2): ≥ 2 | fold increase value (receptor response) (OR5P3; trans-2-octenal 50 μM, HEK293T cells expressing OR5P3): ≥ 2 | fold increase value (receptor response) (OR7G1): ≥ 2 | fold increase value (receptor response) (OR9I1): ≥ 2 | fold increase value (receptor response) (OR51A7): ≥ 2

CCCCCC/C=C/C=O [trans-2-nonenal]
receptor response to different concentrations (OR1D2; different concentrations of trans-2-nonenal, FIG. 2, no response in mock test): respond to trans-2-nonenal in a concentration-dependent manner | fold increase value (receptor response) (OR1D2; trans-2-nonenal 60 μM, HEK293T cells expressing OR1D2, 3 hours): ≥ 2 | receptor response to different concentrations (OR2C1 [2]; different concentrations of trans-2-nonenal, FIG. 3, no response in mock test): respond to trans-2-nonenal in a concentration-dependent manner | fold increase value (receptor response) (OR2C1 [2]; trans-2-nonenal 60 μM, HEK293T cells expressing OR2C1, 3 hours): ≥ 2 | receptor response to different concentrations (OR4E2; different concentrations of trans-2-nonenal, FIG. 5, no response in mock test): respond to trans-2-nonenal in a concentration-dependent manner | fold increase value (receptor response) (OR4E2; trans-2-nonenal 60 μM, HEK293T cells expressing OR4E2, 3 hours): ≥ 2 | receptor response to different concentrations (OR5P3; different concentrations of trans-2-nonenal, FIG. 6, no response in mock test): respond to trans-2-nonenal in a concentration-dependent manner | fold increase value (receptor response) (OR5P3; trans-2-nonenal 60 μM, HEK293T cells expressing OR5P3, 3 hours): ≥ 2 | receptor response to different concentrations (OR52N2; different concentrations of trans-2-nonenal, FIG. 7, no response in mock test): respond to trans-2-nonenal in a concentration-dependent manner | fold increase value (receptor response) (OR52N2; trans-2-nonenal 60 μM, HEK293T cells expressing OR52N2, 3 hours): ≥ 2

Source: patent US11649510B2, “Screening method for materials that suppress characteristic body odor of elderly people” (Takasago International Corporation, priority 2017, dated 2023)
